According to publication PMC6523814, “Small-Molecule Host-Defense Peptide Mimetic Antibacterial and Antifungal Agents Activate Human and Mouse Mast Cells via Mas-Related GPCRs” (Cells, 2019):
In brackets after ≈: the same amount, converted by molar mass.

Tests used:
[1] = system: Candida albicans (ATCC GDH2346); experiment: Fungus MIC assay (CLSI C27-A3); type: cell-based; settings: RPMI/MOPS pH 7.0, 35 °C, 48 h; for MIC: Candida albicans
Method: (§1) Fungal strains included a clinical isolate of Candida albicans (ATCC GDH2346), Aspergillus fumigatus (ATCC MYA-3626), and Aspergillus flavus (ATCC 204304). Minimum inhibitory concentration (MIC) assays were carried out in 96-well plates using the Clinical and Laboratory Standards Institute (CLSI) method C27-A3 for C. albicans and M38-A2 for Aspergillus species. smHDPMs, each in stock solutions of 10 mM in DMSO, were diluted in 50 µL RPMI/MOPS pH 7.0 in a 96-well plate and 50 µL of diluted yeast were added to each well. […] The plate was then incubated at 35 °C for 48 h. […] All MIC assays were performed in duplicate.

[2] = system: Aspergillus flavus (ATCC 204304); experiment: Fungus MIC assay (CLSI M38-A2); type: cell-based; settings: RPMI/MOPS pH 7.0, 35 °C, 48 h; for MIC: Aspergillus flavus, ATCC204304
Method: as §1

[3] = system: Aspergillus fumigatus (ATCC MYA-3626); experiment: Fungus MIC assay (CLSI M38-A2); type: cell-based; settings: RPMI/MOPS pH 7.0, 35 °C, 48 h; for MIC: Aspergillus fumigatus
Method: as §1

[4] = Cytotoxicity, MTS viability assay; type: cell-based, mouse; settings: mouse, 3T3 fibroblasts (ATCC CRL-1658); 1 h exposure in serum-free medium, MTS
Method: (§2) Cytotoxicity (50% […] concentration, CC50) was determined against mouse 3T3 fibroblasts (ATCC CRL-1658) and human transformed liver HepG2 cells (ATCC HB-8065) using an MTS viability assay according to the manufacturer’s protocol (Promega CellTiter 96 aqueous nonradioactive cell proliferation assay). Briefly, 3T3 cells were seeded at 2 × 10^4 cells/well in Dulbecco’s modified Eagle’s medium (DMEM) supplemented with 10% bovine calf serum and HepG2 cells were seeded at 3 × 10^4 cells/well in MEM supplemented with 10% fetal bovine serum. After 24 h of growth, the culture medium was replaced with medium lacking serum, and eight two-folds dilutions of each of the five compounds were added. […] Following incubation for 1 h at 37 °C, compound solutions were removed and medium containing serum was replenished. Viability was determined by addition of the tetrazolium compound, MTS, and the electron coupling agent, PMS, and then incubation at 37 °C for 2 h (3T3 cells) or 3 h (HepG2 cells) followed by absorbance measurements at 490 nm. The CC50 was calculated using GraphPad Prism software (nonlinear fit).

[5] = system: mouse 3T3 fibroblasts (ATCC CRL-1658); experiment: Cytotoxicity, MTS viability assay; type: cell-based; settings: for fold less cytotoxic than Compound 2: CC50 in 3T3 and HepG2 cells relative to Compound 2
Method: as §2

[6] = Cytotoxicity, MTS viability assay; type: cell-based, human; settings: human, HepG2 cells (ATCC HB-8065); 1 h exposure in serum-free medium, MTS
Method: as §2

[7] = system: human transformed liver HepG2 cells (ATCC HB-8065); experiment: Cytotoxicity, MTS viability assay; type: cell-based
Method: as §2

MRGPRX2 = molecular target: T1, MRGPRX2 (Homo sapiens, UniProt Q96LB1); experiment: Degranulation (β-hexosaminidase release) in RBL-2H3 cells expressing MRGPRX2; type: cell-based; settings: for EC50: RBL-2H3 cells stably expressing MRGPRX2, 30 min; for percentage degranulation (β-hexosaminidase release): 3 µM, 30 min, RBL-2H3 cells stably expressing MRGPRX2
T1 construct: HA (hemagglutinin)
T1 sequence (Q96LB1 1-330): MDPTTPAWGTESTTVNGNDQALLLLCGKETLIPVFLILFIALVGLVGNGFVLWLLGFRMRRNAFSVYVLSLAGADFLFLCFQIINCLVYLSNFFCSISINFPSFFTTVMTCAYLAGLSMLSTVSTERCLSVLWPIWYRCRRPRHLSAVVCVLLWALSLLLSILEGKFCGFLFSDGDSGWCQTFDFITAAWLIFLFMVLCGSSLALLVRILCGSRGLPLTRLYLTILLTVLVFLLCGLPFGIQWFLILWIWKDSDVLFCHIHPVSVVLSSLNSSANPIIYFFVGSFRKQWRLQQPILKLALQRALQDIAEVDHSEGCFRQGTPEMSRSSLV
Method: The human mast cell line, LAD2, was maintained in complete StemPro-34 medium supplemented with L-glutamine (2 mM), penicillin (100 IU/mL), streptomycin (100 μg/mL), and 100 ng/mL recombinant human stem cell factor (rhSCF). Hemidepletions were performed weekly with media containing rhSCF (100 ng/mL). Rat basophilic leukemia (RBL-2H3) cells were maintained as monolayer cultures in DMEM supplemented with 10% FBS, L-glutamine (2 mM), penicillin (100 IU/mL), and streptomycin (100 μg/mL). Peritoneal mast cells (PMCs) were obtained from 6–8 weeks old C57BL/6 and Mrgprb2^-/- (C57BL/6 background) mice using i.p. injection of 8 mL MC disassociation medium that was made of HBSS with 3% FCS and 10 mM HEPES. The cells were cultured in Iscove’s Modified Dulbecco’s Medium (IMDM) supplemented with 10% FCS, murine IL-3 (10 ng/mL), and murine SCF (30 ng/mL). After 48 h, the medium and the suspended cells were removed and replaced with fresh medium containing murine IL-3 (10 ng/mL) and murine SCF (30 ng/mL). The floating cells were then used for the experiment within 2–3 weeks. Bone-marrow-derived mast cells (BMMCs) were harvested by flushing bone marrow cells from the femurs of C57BL/6 mice and culturing the cells for 4–8 weeks in IMDM supplemented with 10% FCS, murine IL-3 (10 ng/mL). The cells were then used within 4–8 weeks.
Cells (2 ×10^6) were transfected with plasmids (2 µg/µL) encoding MRGPRX2 or MRGPRX2 missense mutants using the Amaxa kit V using Amaxa Nucleofector device according to the manufacturer’s protocol. For stable transfection, cells were cultured in the presence of G-418 (1 mg/mL) and used within one month of transfection. For transient transfection, cells were used within 16–20 h after transfection. To detect MRGPRX2 expression, cells (1 × 10^6) were incubated with the PE-conjugated anti-MRGPRX2 antibody, washed in FACS buffer, fixed, and analyzed on a BD LSR II flow cytometer.
RBL-2H3 cells (5 × 10^4), LAD2 cells (10 × 10^4), and PMCs (5 × 10^3), BMMCs (5 × 10^4), were seeded into 96-well plates in a total volume of 50 μl HEPES buffer containing 0.1% bovine serum albumin (BSA) and exposed to ligands for 30 min. Cells without treatment were designated as control. In some experiments, cells were treated with Pertussis toxin (PTx). For total β-hexosaminidase release, unstimulated cells were lysed in 50 μl of 0.1% Triton X-100. Aliquots (20 μl) of supernatants or cell lysates were incubated with 20 μl of 1 mM p-nitrophenyl-N-acetyl-β- D-glucosamine for 1 h at 37 °C. The reaction was stopped by adding 250 μl of a 0.1 M Na2CO3/0.1 M NaHCO3 buffer and absorbance was measured at 405 nm.

[8] = system: Enterococcus faecalis [ATCC 29212]; experiment: Bacterial MIC assay (Hancock modified broth assay); type: cell-based; settings: ATCC29212, cation-adjusted Mueller–Hinton, 18 h
Method: (§3) were tested for antibacterial activities against three Gram-negative bacteria (Escherichia coli [ATCC 25922], Pseudomonas aeruginosa [ATCC 10145], and Klebsiella pneumonia [ATCC 13883]) and two Gram-positive bacteria (Staphylococcus aureus [ATCC 27660] and Enterococcus faecalis [ATCC 29212]) using the Hancock modified broth assay. Three milliliters cation-adjusted Mueller-Hinton medium was inoculated with 20 μL of frozen bacterial stock and incubated at 37 °C on a shaker platform (250 rpm) overnight. […] All samples were done in duplicate. One set of control wells included broth-only samples with dilution buffer for testing sterility and providing blank values for the assay readings. Vehicle-control wells containing the bacterial suspension with DMSO (no compound) were also included. Following the overnight incubation (18 h), the cell growth was assessed by observing the presence of “acceptable growth”, defined by CLSI as a ≥2 mm button or definite turbidity. MIC was defined as the lowest concentration where acceptable growth is not observed.

[9] = system: Escherichia coli [ATCC 25922]; experiment: Bacterial MIC assay (Hancock modified broth assay); type: cell-based; settings: cation-adjusted Mueller–Hinton, 18 h; for MIC: Escherichia coli, ATCC25922
Method: as §3

[10] = system: Klebsiella pneumonia [ATCC 13883]; experiment: Bacterial MIC assay (Hancock modified broth assay); type: cell-based; settings: Klebsiella pneumoniae, ATCC13883; cation-adjusted Mueller–Hinton, 18 h
Method: as §3

[11] = system: Pseudomonas aeruginosa [ATCC 10145]; experiment: Bacterial MIC assay (Hancock modified broth assay); type: cell-based; settings: ATCC10145, cation-adjusted Mueller–Hinton, 18 h
Method: as §3

[12] = system: Staphylococcus aureus [ATCC 27660]; experiment: Bacterial MIC assay (Hancock modified broth assay); type: cell-based; settings: cation-adjusted Mueller–Hinton, 18 h; for MIC: Staphylococcus aureus, ATCC27660
Method: as §3

[13] = system: methicillin-resistant S. aureus (MRSA); design: method as in PMID 26501484; settings: cited from earlier work

SMILES	MIC [1] [µg/mL]	MIC [2] [µg/mL]	MIC [3] [µg/mL]	MIC A. fumigatus [3] [µg/mL]	CC50 at 1 h [4] [µM]	cytotoxic effects on 3T3 cells at concentrations relevant for antifungal activity [5]	CC50 at 1 h [6] [µM]	cytotoxic effects on HepG2 cells at concentrations relevant for antifungal activity [7]	EC50 (MRGPRX2) [µM]	MIC [8] [µg/mL]	MIC [9] [µg/mL]	MIC [10] [µg/mL]	MIC [11] [µg/mL]	MIC [12] [µg/mL]	fold less cytotoxic than Compound 2 [5]	percentage degranulation (β-hexosaminidase release) (MRGPRX2)	MIC C. albicans [1] [µg/mL]	MIC A. flavus [2] [µg/mL]	further results
Cc1cc(C#CCNC(=N)N)ccc1-c1nnc(-c2ccc(C#CCNC(=N)N)cc2)o1 [Compound 1]	0.78 to 1.56 (≈ 1.83 to 3.66 µM)	6.25 (≈ 14.7 µM)	12.5 to 50 (≈ 29.3 to 117 µM)	12.5 to 50	209	little to no cytotoxic effects	257	little to no cytotoxic effects	0.8										
Cc1c(-c2ccc(N3CCNCC3)cc2)ncnc1-c1ccc(N2CCNCC2)cc1 [Compound 4]	> 100	> 100	> 100		883		> 1560		0.4	> 100	> 100	> 100	> 100	> 100	2–10 fold	20–25%			
N=C(N)N1CC=C(c2ccc(-c3nnc(-c4ccc(C5=CCN(C(=N)N)CC5)cc4)o3)cc2)CC1 [Compound 2]	0.39 (≈ 0.832 µM)	0.39 (≈ 0.832 µM)	0.39 (≈ 0.832 µM)	0.39 (≈ 0.832 µM)	124	little to no cytotoxic effects	151	little to no cytotoxic effects	3	> 100	3.1 (≈ 6.62 µM)	> 100	> 100	0.1 (≈ 0.213 µM)			0.39 (≈ 0.832 µM)	0.39 (≈ 0.832 µM)	Bacterial MIC Escherichia coli [9]: 3.1 µg/mL; Bacterial MIC Staphylococcus aureus [12]: 0.1 µg/mL
C1=C(c2ccc(-c3cn(-c4ccc(C5=CCNCC5)cc4)nn3)cc2)CCNC1 [Compound 3]	> 100	> 100	> 100	> 100	60		111		1.8								> 100	> 100	
N=C(N)NCCCCC(=O)Nc1cc(C(F)(F)F)cc(NC(=O)c2cc(C(=O)Nc3cc(C(F)(F)F)cc(NC(=O)CCCCNC(=N)N)c3O[C@@H]3CCNC3)ncn2)c1O[C@@H]1CCNC1 [Brilacidin]																			efficacy in rabbit model of MRSA-induced keratitis [13]: displays efficacy
c1cc(-c2ccc(N3CCNCC3)cc2)cc(-c2ccc(N3CCNCC3)cc2)n1 [Compound 5]	> 100	> 100	> 100		200		447		0.38	> 100	> 100	> 100	> 100	> 100	2–10 fold	20–25%			
